This note sets out measurements from patent publication US20240293289A1, “Multifunctional Dental Adhesives and Uses Thereof” (University of Maryland, Baltimore, priority 2023, published 2024).

This assay addresses MMP-9 (Homo sapiens, UniProt P14780). Briefly: SENSOLYTE Generic MMP Assay Kit, MMP inhibition. In kind it is biochemical. The procedure: For the MMPs inhibition assay, SENSOLYTE Generic MMP Assay Kit Colorimetric was used. The MMP thiopeptide substrate solution was diluted to 0.2 mM with the supplied assay buffer in a 1:50 volume ratio. A 96-well plate was used for the assay using four replicates per group. In each well, 40 μL of MMP-9 (20 ng/well), 10 μL of CHX (1 mg/mL) at serial dilutions, and 50 μL of thiopeptide substrate solution were mixed. […] was measured using a plate reader (SpectraMax M5, Molecular Devices, Sunnyvale, CA, USA) at Ex/Em-490 nm/540 nm with a kinetic mode every 5 min for 60 min (20). The substrate control group was set as a background, where its absorbance was subtracted from other wells. The percentage of MMP inhibition was calculated according to equation 5: […]

Sequence of MMP-9 (P14780 94-707): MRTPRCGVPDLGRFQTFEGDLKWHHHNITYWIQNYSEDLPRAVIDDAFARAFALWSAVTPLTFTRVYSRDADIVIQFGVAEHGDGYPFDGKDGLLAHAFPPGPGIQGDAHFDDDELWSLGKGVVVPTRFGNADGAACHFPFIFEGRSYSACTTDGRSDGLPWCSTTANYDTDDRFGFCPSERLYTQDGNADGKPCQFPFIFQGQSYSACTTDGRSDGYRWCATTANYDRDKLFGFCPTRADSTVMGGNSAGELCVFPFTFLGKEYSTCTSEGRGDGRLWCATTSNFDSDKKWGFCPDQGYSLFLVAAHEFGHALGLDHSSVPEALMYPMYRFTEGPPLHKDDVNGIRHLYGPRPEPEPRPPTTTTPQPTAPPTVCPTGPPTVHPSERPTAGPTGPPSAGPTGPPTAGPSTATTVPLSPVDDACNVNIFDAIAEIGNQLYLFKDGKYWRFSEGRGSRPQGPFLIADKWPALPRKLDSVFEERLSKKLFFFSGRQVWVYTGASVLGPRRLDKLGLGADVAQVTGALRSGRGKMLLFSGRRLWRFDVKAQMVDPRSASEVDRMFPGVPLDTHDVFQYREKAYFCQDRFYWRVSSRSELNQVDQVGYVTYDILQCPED

With `[H]/N=C(\N/C(=N/[H])NCCCCCCNC(=N)NC(=N)Nc1ccc(Cl)cc1)Nc1ccc(Cl)cc1` [CHX, Chlorhexidine], the inhibition (in general, the percentage by which the read-out fell short of the control) at 1000 µg/mL (1 mg/mL CHX) is 99.8%. Also, where the note is “less than 1 mg/mL of CHX”, the “inhibition of MMP-9” value is reported as “substantial inhibition”.
